The assay has as its target T1, GST-hLGK1 (GK) (Homo sapiens, UniProt P35557).
T1 construct: GST (N); made in house
T1 sequence (P35557 1-464 isoform P35557-3): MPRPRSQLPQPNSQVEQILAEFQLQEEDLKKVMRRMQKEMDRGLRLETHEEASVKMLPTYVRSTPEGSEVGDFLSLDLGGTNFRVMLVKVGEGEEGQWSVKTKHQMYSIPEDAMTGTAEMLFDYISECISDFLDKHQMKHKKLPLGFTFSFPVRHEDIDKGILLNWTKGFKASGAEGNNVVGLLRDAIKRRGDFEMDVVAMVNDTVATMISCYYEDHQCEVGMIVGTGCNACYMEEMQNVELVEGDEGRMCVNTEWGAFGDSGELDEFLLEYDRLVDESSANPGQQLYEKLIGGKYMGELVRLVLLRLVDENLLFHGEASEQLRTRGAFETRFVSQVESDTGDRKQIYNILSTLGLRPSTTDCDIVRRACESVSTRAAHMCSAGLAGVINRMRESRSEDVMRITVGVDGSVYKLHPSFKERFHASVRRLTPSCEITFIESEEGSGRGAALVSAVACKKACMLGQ
Nature of the assay: GK activation assay with GST-hLGK1 and Mant-ATP, capillary electrophoresis readout. In kind it is biochemical. The note with it: GST-hLGK1 6 μg/mL, 50 μM Mant-ATP, 25 mM D-glucose solution (10 μL) added, 37° C. for 60 min; concentration for 50% of the maximum activity value; read-out: EC50 of Exemplified Compounds against GK. How it is done: A 50% solution (5 μL) of the test compound in dimethyl sulfoxide was added to each well of a 384 well black plate (Nalge Nunc). Then, 35 μL of a liquid obtained by diluting GST-hLGK1 obtained in Reference Example 2A with a measurement buffer (50 mM HEPES (pH 7.4), containing 200 mM KCl, 5 mM MgCl2, 2.5 mM DTT and 50 μM 2′-(or-3′)—O—(N-methylanthraniloyl)adenosine 5′-triphosphate (Mant-ATP) (Jena Bioscience)) was added to each well to 6 μg/mL. Each well was maintained at 37° C. for 10 min, and a 25 mM D-glucose solution (10 μL) was added to start the reaction. After the start of the reaction, each well was allowed to stand at 37° C. for 60 min, before quenching the reaction by adding 25 μL of a reaction quenching solution (200 mM HEPES (pH 7.4), containing 20 mM MgCl2, 200 mM EDTA, 0.03% Triton-X 100, 0.3% Coating 3 reagent (Caliper Life Sciences)).
Mant-ATP (substrate) and Mant-ADP (reaction resultant product) were separated from each well after quenching the reaction, with a microchip type capillary electrophoresis apparatus 250HTS (Caliper Life Sciences). The reaction rate [(peak height of reaction resultant product)/(peak height of reaction resultant product+peak height of substrate)×100(%)] was calculated from the ratio of the substrate peak height and the reaction resultant product peak height, which were obtained by fluorescence detection (excitation wavelength 355 nm, measurement wavelength 460 nm), and used as an index of the GK activity.
For the control, the reaction rate was calculated in the same manner as above, except that a “50% dimethyl sulfoxide solution” was used instead of the “50% solution of the test compound in dimethyl sulfoxide”.
A percentage obtained by dividing the reaction rate of the well with the test compound (test compound addition group) by the reaction rate of the well with a 50% dimethyl sulfoxide solution alone (control group) was taken as the GK activation value by the test compound, and the concentration of the test compound necessary for the activation of 50% of the maximum activity value determined as an EC50 value.
The EC50 is the concentration that produces a half-maximal response. For the molecule `CC(=O)c1ccc2[nH]nc(Nc3nccs3)c2c1` [Compound 25, 1-[3-(1,3-Thiazol-2-ylamino)-1H-indazol-5-yl]ethanone], the EC50 amounted to 8600 nM. The same measure for `CC(C)c1ccc2[nH]nc(Nc3nccs3)c2c1` [Compound 33, 5-Isopropyl-N-1,3-thiazol-2-yl-1H-indazol-3-amine]: 2900 nM; for `CC(=O)Nc1ccc2[nH]nc(Nc3nccs3)c2c1` [Compound 22, N-[3-(1,3-Thiazol-2-ylamino)-1H-indazol-5-yl]acetamide]: 15000 nM; for `CC(C)Oc1ccc2[nH]nc(Nc3nccs3)c2c1` [Compound 34, 5-Isopropoxy-N-1,3-thiazol-2-yl-1H-indazol-3-amine]: 1700 nM.

As for `COCC(C)Oc1ccc2[nH]nc(Nc3nccs3)c2c1` (stereo not drawn) [Compound 35, 5-(2-Methoxy-1-methylethoxy)-N-1,3-thiazol-2-yl-1H-indazol-3-amine], the EC50 stood at 2400 nM. In the case of `Cn1nc(Nc2nccs2)c2cc(C(F)(F)F)ccc21` [Compound 9, 1-Methyl-N-1,3-thiazol-2-yl-5-(trifluoromethyl)-1H-indazol-3-amine], the EC50 turned out to be 2500 nM. The same measure for `Brc1ccc2[nH]nc(Nc3nccs3)c2c1` [Compound 7, 5-Bromo-N-1,3-thiazol-2-yl-1H-indazol-3-amine]: 5000 nM. The result for `O=[N+]([O-])c1ccc2[nH]nc(Nc3nccs3)c2c1` [Compound 20, 5-Nitro-N-1,3-thiazol-2-yl-1H-indazol-3-amine] reads 6600 nM; that for `CC(C)Cc1ccc2[nH]nc(Nc3nccs3)c2c1` [Compound 29, 5-Isobutyl-N-1,3-thiazol-2-yl-1H-indazol-3-amine], 1200 nM.

Source of the values: patent publication US20070244169A1, “GLUCOKINASE ACTIVATORS” (priority 2005, published 2007).
